Values of other authors as cited in paper PMC8778818, “Synthesis, Structural Characterization and Anticancer Activity of New 5-Trifluoromethyl-2-thioxo-thiazolo[4,5-d]pyrimidine Derivatives” (Pharmaceuticals, 2022).

What was measured:
[1] = tested on: 60 human cancer cell lines; set-up: method as in PMID 579132; conditions: analogs IV and V, cited from earlier work
CAKI-1 = tested on: CAKI-1; set-up: method as in PMID 579132; conditions: Renal C. CAKI-1, 10^−5 M one dose; cited from earlier work

Fc1ccc(-c2nc(Cl)c3sc(=S)n(-c4ccccc4)c3n2)cc1 [V]
N2: number of cell lines giving positive log TGI (≤−4.01) ([1]; of N = 59 tested cell lines): 49
log GI50 Range ([1]; values > −4.00 excluded): −4.23 to −8.00 log M
log LC50 Range ([1]; values > −4.00 excluded): −4.07 to −5.42 log M
log TGI Range ([1]; values > −4.00 excluded): −4.10 to −5.90 log M
Growth % of the most sensitive cell line (CAKI-1): −88.95%
